Source: patent US20040086880A1, “Method of producing nucleic acid molecules with reduced secondary structure” (priority 1999, published 2004)

Legend:
[1] = target: T1, Bst DNA polymerase (Geobacillus stearothermophilus, UniProt P52026); test: Incorporation specificity of 2-thio-2′-deoxycytidine triphosphate opposite template G or I; format: biochemical; conditions: 5.0 uM dNTP, 45° C.; for primer extension rate: template I
T1 sequence (P52026 1-876): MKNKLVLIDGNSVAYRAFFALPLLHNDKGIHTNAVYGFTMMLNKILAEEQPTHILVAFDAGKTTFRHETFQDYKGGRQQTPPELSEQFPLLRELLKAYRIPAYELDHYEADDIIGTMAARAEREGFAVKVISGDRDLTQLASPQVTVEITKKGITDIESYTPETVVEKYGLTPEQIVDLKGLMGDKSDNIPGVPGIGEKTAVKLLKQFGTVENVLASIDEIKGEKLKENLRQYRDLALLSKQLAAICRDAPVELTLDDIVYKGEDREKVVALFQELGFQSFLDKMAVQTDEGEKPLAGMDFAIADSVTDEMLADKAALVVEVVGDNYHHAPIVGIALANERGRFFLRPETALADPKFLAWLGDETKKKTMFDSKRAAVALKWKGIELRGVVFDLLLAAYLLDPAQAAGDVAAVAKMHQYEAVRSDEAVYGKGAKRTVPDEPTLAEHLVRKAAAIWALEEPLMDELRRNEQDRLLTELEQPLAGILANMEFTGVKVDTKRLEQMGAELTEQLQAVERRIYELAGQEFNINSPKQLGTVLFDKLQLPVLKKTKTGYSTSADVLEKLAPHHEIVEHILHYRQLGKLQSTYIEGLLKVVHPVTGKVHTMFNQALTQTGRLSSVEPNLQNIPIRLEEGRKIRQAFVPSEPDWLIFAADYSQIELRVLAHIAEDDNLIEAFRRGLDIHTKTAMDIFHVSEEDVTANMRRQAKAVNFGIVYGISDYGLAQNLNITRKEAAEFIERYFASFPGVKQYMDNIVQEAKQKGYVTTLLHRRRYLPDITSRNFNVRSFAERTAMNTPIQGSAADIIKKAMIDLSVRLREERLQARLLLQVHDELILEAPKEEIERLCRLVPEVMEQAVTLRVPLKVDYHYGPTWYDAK
Method: The reactions were incubated at 45° C. At 5, 10, 20 and 40 minutes, 7.0 uL aliquots were removed and the reaction mixture was separated by electrophoresis on 20%/7M urea polyacrylamide gels. The products were visualized by phosphorimaging.

[2] = 28-mer duplexes; cited from earlier work
[3] = target: T2, SuperScript II MMLV reverse transcriptase (Moloney murine leukemia virus, UniProt P03355, D1183G/D1242N/E1221Q); test: Synthesis of full-length cUNA from polyadenylated T7-RNA transcripts; format: biochemical; conditions: additional substitution for GTP; relative to natural dNTP or D/S substituted reactions
T2 construct: 200 units of SuperScript II MMLV reverse transcriptase (InVitrogen); purchased InVitrogen
Method: The ability to synthesize full-length UNA copies (cUNAs) of polyadenylated RNA was tested using various reverse transcriptase enzymes and three T7-RNA transcripts having 3′-polyadenylated tails as templates. The three T7-RNA transcripts correspond to the genes for the penicillin binding protein from E. coli (pBp-1), the chlorophyll A/B binding protein from Arabidopsis thaliana (Cab), and nucleotides 5-335 of the Hepatitis C virus (HCV) genome (See FIG. 32 (panel A)). The expected length of the cUNAs generated from the three polyadenylated RNAs using an oligo-dT primer is 1194, 729 and 360 nucleotides respectively (see FIG. 32 (panel B)).
The reverse transcriptase reactions (15.0 uL) were performed in 0.65 mL pre-siliconized microfuge tubes containing the following components: 50 mM Tris-Cl (pH 8.3), 75 mM KCl, 3.0 mM MgCl2, 4.5 mM DTT, 500 uM dGTP (or dITP), 500 uM dATP (or 2-amino-2′-deoxyadenosine-5′-triphosphate), 500 uM TTP (or 2-thiothymidine-5′-triphosphate), 100 uM dCTP, 0.33 uCi of ^32P-α-dCTP, 20 nM each T7-RNA template, 1.0 uM T16N2 primer, 1.0 unit of RNase Out (In Vitrogen), and 200 units of SuperScript II MMLV reverse transcriptase (InVitrogen). The buffer components, RNA template and primer were annealed by heating to 75° C. for 4 minutes and quickly cooled to room temperature. […]

[4] = target: T3, Bst DNA polymerase (Geobacillus stearothermophilus, UniProt P52026); test: Single nucleotide extension of 6-mer primers at varying dNTP concentration; format: biochemical; conditions: for extension efficiency of 6-mer primer compared with natural dNTP: dNTP 0.5 microM to 130 microM, 45° C., 8 hours
T3 construct: purchased New England Biolabs
T3 sequence (P52026 290-876 limits assumed): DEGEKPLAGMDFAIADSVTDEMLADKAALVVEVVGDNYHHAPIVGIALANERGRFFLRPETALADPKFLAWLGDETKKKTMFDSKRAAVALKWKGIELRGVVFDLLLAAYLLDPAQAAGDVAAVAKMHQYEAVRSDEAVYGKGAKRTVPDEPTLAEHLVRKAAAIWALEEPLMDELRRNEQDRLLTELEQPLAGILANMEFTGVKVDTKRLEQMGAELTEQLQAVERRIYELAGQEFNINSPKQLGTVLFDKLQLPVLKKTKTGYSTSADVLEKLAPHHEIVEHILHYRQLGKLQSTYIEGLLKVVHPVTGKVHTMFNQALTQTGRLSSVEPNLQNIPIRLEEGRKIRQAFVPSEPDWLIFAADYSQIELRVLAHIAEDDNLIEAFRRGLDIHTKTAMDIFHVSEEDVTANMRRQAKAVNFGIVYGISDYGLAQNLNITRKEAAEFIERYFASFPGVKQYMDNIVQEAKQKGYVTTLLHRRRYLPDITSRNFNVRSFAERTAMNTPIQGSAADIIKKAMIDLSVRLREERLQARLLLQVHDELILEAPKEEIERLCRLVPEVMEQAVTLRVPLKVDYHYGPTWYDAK
Method: To further assess the incorporation efficiency of the modified nucleotides by Bst DNA polymerase, the efficiency for a single nucleotide extension reaction was determined using two 6-mer primers in the presence of varying concentrations of dATP, 2-amino-2′-deoxyadenosine-5′-triphosphate, dTTP or 2-thiothymidine-5′-triphosphate (illustrated as 2-thioTTP) (FIGS. 3A and 4A). For this study, the reaction mixtures contained: 20 mM Tris-Cl (pH 8.8 @ 25° C.), 10 mM KCl, 10 mM (NH4)2SO4, 2 mM MgSO4, 0.1% Triton-X100, 500 nanoM 6-mer primer, 20 nanoM 30-mer DNA template, 0.8 units/microL (˜70 nanoM) Bst DNA polymerase and a dNTP concentration ranging from 0.5 microM to 130 microM. The reaction mixtures were incubated at 45° C. for 8 hours and separated by electrophoresis on 20% denaturing (7M urea) polyacrylamide gels.

[5] = target: T4, T7 RNA polymerase (Escherichia phage T7, UniProt P00573); test: Transcription of ribo-UNA from linearized DNA template; format: biochemical; conditions: substituted for ATP and UTP; 37° C., one hour
T4 construct: purchased Ambion Inc
Method: The ability to transcribe longer ribo-UNAs (rUNAs) using T7 RNA polymerase and the corresponding modified ribonucleotide triphosphates was tested using a linear double-stranded DNA template. A plasmid DNA containing the human retinoblastoma gene under control of a T7 RNA polymerase promoter was digested with the restriction endonucleases XbaI and AflII. The resulting linearized plasmid templates for a 138 nucleotide transcript when transcribed with T7 RNA polymerase (see FIG. 34A).
The transcription reactions (20 uL) contained 1× transcription buffer (Ambion Inc.), 0.5 mM GTP, 0.5 mM ATP (or 2-aminoadenosine-5′-triphosphate (rD)), 0.5 mM UTP (or 2-thiouridine-5′-triphosphate (rS), 1.6 uM α-^32P-CTP, 1 ug of the linearized DNA template and 10 units of T7 RNA polymerase (Ambion Inc.). The reaction mixtures were incubated at 37° C. for one hour and then separated by electrophoresis on a 6%/7M urea polyacrylamide gel.

T4 sequence (P00573 whole entry): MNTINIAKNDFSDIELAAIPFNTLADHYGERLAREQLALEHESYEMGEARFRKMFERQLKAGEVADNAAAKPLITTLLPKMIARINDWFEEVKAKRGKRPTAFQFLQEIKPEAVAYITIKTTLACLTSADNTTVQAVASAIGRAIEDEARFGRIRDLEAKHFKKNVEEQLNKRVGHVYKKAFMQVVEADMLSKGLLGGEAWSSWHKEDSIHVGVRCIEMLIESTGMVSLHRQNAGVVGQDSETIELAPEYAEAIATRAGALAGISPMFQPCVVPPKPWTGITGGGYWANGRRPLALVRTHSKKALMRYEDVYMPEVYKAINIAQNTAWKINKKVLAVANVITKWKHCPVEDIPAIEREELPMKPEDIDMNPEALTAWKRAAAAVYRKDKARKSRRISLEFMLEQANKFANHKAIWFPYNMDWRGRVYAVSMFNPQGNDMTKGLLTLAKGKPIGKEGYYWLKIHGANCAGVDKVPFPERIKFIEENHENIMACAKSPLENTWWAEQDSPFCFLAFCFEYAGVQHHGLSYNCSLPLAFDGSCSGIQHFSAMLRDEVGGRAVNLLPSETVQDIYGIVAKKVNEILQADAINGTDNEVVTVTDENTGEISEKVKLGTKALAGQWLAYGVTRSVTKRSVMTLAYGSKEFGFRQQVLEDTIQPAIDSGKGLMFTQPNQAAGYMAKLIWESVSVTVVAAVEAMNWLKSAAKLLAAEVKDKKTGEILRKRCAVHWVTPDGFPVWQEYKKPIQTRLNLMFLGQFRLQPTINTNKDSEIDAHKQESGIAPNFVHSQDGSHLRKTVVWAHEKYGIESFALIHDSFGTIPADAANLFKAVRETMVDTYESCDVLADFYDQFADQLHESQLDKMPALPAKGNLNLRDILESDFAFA

With `Nc1ccn([C@H]2C[C@H](O)[C@@H](COP(=O)(O)OP(=O)(O)OP(=O)(O)O)O2)c(=S)n1` [2-thio-2′-deoxycytidine triphosphate, 2-thio-2′-deoxycytidine-5′-triphosphate] the primer extension rate [1] was “equivalent”.
In the case of `OC[C@H]1O[C@@H](n2cnc3c(O)ncnc32)[C@H](O)[C@@H]1O` [I, inosine], the “change of duplex Tm per modified base pair” value [2] is listed as −1.9 °C.
With `Nc1ccn([C@H]2C[C@H](O)[C@@H](COP(=O)(O)OP(=O)(O)OP(=O)(O)O)O2)c(=O)n1` [dCTP, 2′-deoxycytidine-5′-triphosphate, reference compound] the “conversion of the 12-mer primer to the 13-mer extension product” value ([1]; template G) was “efficient conversion” and the primer extension rate [1] was “equivalent”.
For `O=P(O)(O)OP(=O)(O)OP(=O)(O)OC[C@H]1O[C@@H](n2cnc3c(O)ncnc32)C[C@@H]1O` [ITP, 2′-deoxyinosine-5′-triphosphate], the “reduction of yield of full-length product” value [3] was “about 2 fold”.
With `Cc1cn([C@H]2C[C@H](O)[C@@H](COP(=O)(O)OP(=O)(O)OP(=O)(O)O)O2)c(=O)[nH]c1=O` [dTTP, 2′-deoxythymidine-5′-triphosphate, reference compound] the EC50 [4] was ~4 µM and the “extension efficiency of 6-mer primer compared with natural dNTP” value [4] was “very similar”.
In the case of `c1cc2[nH]cncc-2n1` [P, pyrrolo-pyrimidine], the “change of duplex Tm per modified base pair” value [2] is listed as −0.5 °C.
For `O=c1ccn([C@@H]2O[C@H](COP(=O)(O)OP(=O)(O)OP(=O)(O)O)[C@@H](O)[C@H]2O)c(=S)[nH]1` [2-thiouridine-5′-triphosphate], the “full-length product (138 nucleotide transcript)” value [5] was “full-length product is generated”.
In the case of `Nc1ncnc2c1ncn2[C@H]1C[C@H](O)[C@@H](COP(=O)(O)OP(=O)(O)OP(=O)(O)O)O1` [dATP, 2′-deoxyadenosine-5′-triphosphate, reference compound], the “extension efficiency of 6-mer primer compared with natural dNTP” value [4] is reported as “approximately equal efficiencies”.
With `Nc1nc(N)c2ncn([C@@H]3O[C@H](COP(=O)(O)OP(=O)(O)OP(=O)(O)O)[C@@H](O)[C@H]3O)c2n1` [2-aminoadenosine-5′-triphosphate] the “full-length product (138 nucleotide transcript)” value [5] was “full-length product is generated”.
